Where a name gives a salt, the structure may show the parent alone. Read-outs that look alike come from different tables or passages of the source. Positions of bridges follow the written chain, without caps; N, C: chain ends. Non-standard residues stand in square brackets, D forms with d. Residues, ends and D or L forms follow the SMILES beside them. Triazole bridges read from a SMILES are 1,4-linked. Chains are numbered I, II in the order given. *: point of attachment. DOTA = O=C(O)CN1CCN(CC(=O)O)CCN(CC(=O)*)CCN(CC(=O)O)CC1; Trp(5-OH) = N[C@@H](Cc1c[nH]c2ccc(O)cc12)C(=O)O; NMePhe(4-F) = CN[C@@H](Cc1ccc(F)cc1)C(=O)O; Lys(N3) = [N-]=[N+]=NCCCC[C@H](N)C(=O)O; NMehPhe = CN[C@@H](CCc1ccccc1)C(=O)O; Aad = N[C@@H](CCCC(=O)O)C(=O)O; Gly(cPr) = N[C@H](C(=O)O)C1CC1; NMeK = CN[C@@H](CCCCN)C(=O)O; NMeDap = CN[C@@H](CN)C(=O)O; hLys = NCCCCC[C@H](N)C(=O)O; Pra = C#CC[C@H](N)C(=O)O; Sar = CNCC(=O)O
How the values were obtained:
Format in all cases: binding
mouse HER2 (23-653) [1] = target: T1, mouse HER2 (23-653) (Mus musculus, UniProt P70424); test: TR-FRET competition assay for peptide potency, mouse HER2; parameters: mouse HER2 (23-653) using a Cy5 labeled peptide as a probe; made in house; host or cells: mammalian cells; details: 0.1 nM mouse HER2, 24 h incubation
mouse HER2 (23-653) [2] = target: T1, mouse HER2 (23-653); test: Surface plasmon resonance (SPR) for assessment of peptide affinity, mouse HER2; parameters: mouse HER2 (23-653) using a Cy5 labeled peptide as a probe; made in house
Excerpt: Each protein was immobilized either onto a SA sensorchip (Cytiva, BR-1005-31) or CM5 sensorchip (Cytiva, BR-1005-30) to a density of 800-2000 RU.

human HER2 (23-652) [3] = target: T2, human HER2 (23-652) (Homo sapiens, UniProt P04626); test: TR-FRET competition assay for peptide potency, human HER2; parameters: towards human HER2 (23-652) and mouse HER2 (23-653); made in house; host or cells: mammalian cells
Experimental: Both proteins containing a His-, Avi-tag and biotin in Nterminus, were expressed in mammalian cells and produced in house. […] Standard assay conditions consist of 20 uL total volume in white 384-well plates (Greiner), in 10 mM HEPES buffer containing 150 mM NaCl, 3 mM EDTA, 0.05% Tween20 and 1% final DMSO. […] The ratiometric FRET assay readout is calculated from the ratio of the raw data of the two distinct fluorescence signals measured in time resolved mode (fluorescence 665 nm/fluorescence 620 nm). IC50 values were calculated with the standard Novartis in-house assay data analysis software (Helios software application, Novartis Institutes for BioMedical Research, unpublished) using the methods described in Comput. Methods. Programs. Biomed. 2006, 82, 31-37 (regression algorithms for nonlinear dose-response curve fitting).

human HER2 (23-652) [4] = target: T2, human HER2 (23-652); test: Surface plasmon resonance (SPR) for assessment of peptide affinity, human HER2; parameters: towards human HER2 (23-652) and mouse HER2 (23-653); made in house
Procedure, shortened: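 Binding kinetics fitted from sensorgrams with 280 s peptide association then 3000 s dissociation (30 uL/min), using HER2 (23-652) either directly immobilized (SA/CM5) or anti-Fc-captured; 3 M magnesium chloride used for regeneration.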

[5] = SPR, mouse HER2 extracellular domain, 25° C., 1:1 binding model, read-out: moHER2-SPR-ONC KD
[6] = TR-FRET competition with Cy5 labeled peptide probe, 0.1 nM human HER2, 24 h incubation; read-out: huHER2 TR-FRET IC50
[7] = TR-FRET competition with Cy5 labeled peptide probe, read-out: moHER2 TR-FRET IC50
[8] = SPR, human HER2 extracellular domain, 25° C., 1:1 binding model; read-out: huHER2-SPR-ONC KD

Row | Molecule | IC50 (mouse HER2 (23-653) [1]; [7]) [nM] | Kd (human HER2 (23-652) [4]; [8]) [nM] | IC50 (human HER2 (23-652) [3]; read-out: huHER2 TR-FRET IC50) [nM] | also measured
1 | CC(=O)NCCCC[C@H]1C(=O)N[C@@H](Cc2c[nH]c3ccc(O)cc23)C(=O)N[C@@H](Cc2c[nH]c3ccccc23)C(=O)N[C@@H](C2CC2)C(=O)N(C)[C@H](C(=O)N(C)[C@@H](Cc2ccc(F)cc2)C(N)=O)CNC(=O)CC[C@H](N)C(=O)N[C@@H](Cc2ccc(O)cc2)C(=O)N[C@@H](CO)C(=O)N(C)[C@@H](CCc2ccccc2)C(=O)N1C [Example A32, (3S,6S,9S,12S,15S,18S,21S,24S,27S)-9-((1H-indol-3-yl)methyl)-15-(4-acetamidobutyl)-27-amino-N-((S)-1-amino-3-(4-fluorophenyl)-1-oxopropan-2-yl)-6-cyclopropyl-12-((5-hydroxy-1H-indol-3-yl)methyl)-24-(4-hydroxybenzyl)-21-(hydroxymethyl)-N,4,16,19-tetramethyl-5,8,11,14,17,20,23,26,30-nonaoxo-18-phenethyl-1,4,7,10,13,16,19,22,25-nonaazacyclotriacontane-3-carboxamide TFA salt] | – | – | – | IC50 (mouse HER2 (23-653) [1]; moHER2 TR-FRET IC50, TR-FRET competition with Cy5 labeled peptide probe): 2.6 nM; Kd (mouse HER2 (23-653) [2]): 2.2 nM
2 | COCCOCCOCCOCCOCCOCCOCCOCCOCCOCCOCCOCCC(=O)N[C@H]1CCCC(=O)NC[C@@H](C(=O)N(C)[C@@H](Cc2ccc(F)cc2)C(=O)N[C@@H](CCCCNC(=O)CN2CCN(CC(=O)O)CCN(CC(=O)O)CCN(CC(=O)O)CC2)C(N)=O)N(C)C(=O)[C@H](C2CC2)NC(=O)[C@H](Cc2c[nH]c3ccccc23)NC(=O)[C@H](Cc2c[nH]c3ccc(O)cc23)NC(=O)[C@H](CCCCNC(C)=O)N(C)C(=O)[C@H](CCc2ccccc2)N(C)C(=O)[C@H](CO)NC(=O)[C@H](Cc2ccc(O)cc2)NC1=O [Example C2] | – | – | – | Kd (mouse HER2 (23-653) [2]; [5]): 0.2 nM
3 | I: Ac-[Pra][Sar][Sar][Sar][Sar][Sar][Sar][Sar][Sar][Sar][Sar][Sar][Sar][Sar][Sar]K(DOTA)[Sar][Sar][Sar][Sar][Sar][Sar][Sar][Sar][Sar][Sar][Sar][Sar][Sar][Sar][Pra]-NH2 / II: Ac-[Aad]YS[NMehPhe][NMeK](Ac)[Trp(5-OH)]W[Gly(cPr)][NMeDap][NMePhe(4-F)][Lys(N3)]-NH2 / III: Ac-[Aad]YS[NMehPhe][NMeK](Ac)[Trp(5-OH)]W[Gly(cPr)][NMeDap][NMePhe(4-F)][Lys(N3)]-NH2 (triazole I:1-II:11, I:31-III:11; lactam II:1-II:9, III:1-III:9) [Example C4] | 0.4 | < 0.1 | – | IC50 (human HER2 (23-652) [3]; [6]): 0.1 nM
4 | CC(=O)NCCCC[C@H]1C(=O)N[C@@H](Cc2c[nH]c3ccc(O)cc23)C(=O)N[C@@H](Cc2c[nH]c3ccccc23)C(=O)N[C@@H](C2CC2)C(=O)N(C)[C@H](C(=O)N(C)[C@@H](Cc2ccc(F)cc2)C(=O)N[C@@H](CCCCNC(=O)CN2CCN(CC(=O)O)CCN(CC(=O)O)CC2)C(N)=O)CNC(=O)CCC[C@H](NC(C)=O)C(=O)N[C@@H](Cc2ccc(O)cc2)C(=O)N[C@@H](CO)C(=O)N(C)[C@@H](CCc2ccccc2)C(=O)N1C [Example B10] | < 0.1 | < 0.1 | < 0.1 | –
5 | CC(=O)NCCCC[C@H]1C(=O)N[C@@H](Cc2c[nH]c3ccc(O)cc23)C(=O)N[C@H](Cc2c[nH]c3ccccc23)C(=O)N[C@@H](C2CC2)C(=O)N(C)[C@H](C(=O)N(C)[C@@H](Cc2ccc(F)cc2)C(=O)N[C@@H](CCCCNC(=O)CN2CCN(CC(=O)O)CCN(CC(=O)O)CCN(CC(=O)O)CC2)C(N)=O)CNC(=O)CCC[C@H](NC(C)=O)C(=O)N[C@@H](Cc2ccc(O)cc2)C(=O)N[C@@H](CO)C(=O)N(C)[C@@H](CCc2ccccc2)C(=O)N1C [Example C31] | > 10000 | > 6000 | – | IC50 (human HER2 (23-652) [3]; [6]): 4840 nM
6 | CC(=O)NCCCC[C@H]1C(=O)N[C@@H](Cc2c[nH]c3ccc(O)cc23)C(=O)N[C@@H](Cc2c[nH]c3ccccc23)C(=O)N[C@@H](C2CC2)C(=O)N(C)[C@H](C(=O)N(C)[C@@H](Cc2ccc(F)cc2)C(=O)N[C@@H](CCCCCNC(=O)CN2CCN(CC(=O)O)CCN(CC(=O)O)CCN(CC(=O)O)CC2)C(N)=O)CNC(=O)CCC[C@H](NC(C)=O)C(=O)N[C@@H](Cc2ccc(O)cc2)C(=O)N[C@@H](CO)C(=O)N(C)[C@@H](CCc2ccccc2)C(=O)N1C [Example C17] (Ac-[Aad]YS[NMehPhe][NMeK](Ac)[Trp(5-OH)]W[Gly(cPr)][NMeDap][NMePhe(4-F)][hLys](DOTA)-NH2; lactam 1-9) | 0.1 | < 0.1 | – | IC50 (human HER2 (23-652) [3]; [6]): < 0.1 nM
7 | CC(=O)NCCCC[C@H]1C(=O)N[C@@H](Cc2c[nH]c3ccc(O)cc23)C(=O)N[C@@H](Cc2c[nH]c3ccccc23)C(=O)N[C@@H](C2CC2)C(=O)N(C)[C@H](C(=O)N(C)[C@@H](Cc2ccc(F)cc2)C(=O)N[C@@H](CCCCNC(=O)CN2CCN(CC(=O)O)CCN(CC(=O)O)CCN(CC(=O)O)CC2)C(N)=O)CNC(=O)CCC[C@H](NC(=O)Cc2nnn[nH]2)C(=O)N[C@@H](Cc2ccc(O)cc2)C(=O)N[C@@H](CO)C(=O)N(C)[C@@H](CCc2ccccc2)C(=O)N1C [Example C13] | – | – | – | IC50 (human HER2 (23-652) [3]; read-out: huHER2 TR-FRET IC50; TR-FRET competition with Cy5 labeled peptide probe, 0.1 nM human HER2, 24 h incubation): < 0.1 nM; IC50 (mouse HER2 (23-653) [1]; read-out: moHER2 TR-FRET IC50, TR-FRET competition with Cy5 labeled peptide probe): 0.1 nM; Kd (human HER2 (23-652) [4]; read-out: huHER2-SPR-ONC KD; SPR, human HER2 extracellular domain, 25° C., 1:1 binding model): < 0.1 nM
8 | COCCOCCOCCOCCOCCOCCOCCOCCOCCOCCOCCOCCC(=O)N[C@H]1CCCC(=O)NC[C@@H](C(=O)N(C)[C@@H](Cc2ccc(F)cc2)C(=O)N[C@@H](CCCCNC(=O)CN2CCN(CC(=O)O)CCN(CC(=O)O)CC2)C(N)=O)N(C)C(=O)[C@H](C2CC2)NC(=O)[C@H](Cc2c[nH]c3ccccc23)NC(=O)[C@H](Cc2c[nH]c3ccc(O)cc23)NC(=O)[C@H](CCCCNC(C)=O)N(C)C(=O)[C@H](CCc2ccccc2)N(C)C(=O)[C@H](CO)NC(=O)[C@H](Cc2ccc(O)cc2)NC1=O [Example B11] | 0.2 | < 0.1 | < 0.1 | –
9 | COCCOCCOCCOCCOCCOCCOCCOCCOCCOCCOCCOCCC(=O)N[C@H]1CCCC(=O)NC[C@@H](C(=O)N(C)[C@@H](Cc2ccc(F)cc2)C(=O)N[C@@H](CCCCNC(=O)c2ccc(F)nc2)C(N)=O)N(C)C(=O)[C@H](C2CC2)NC(=O)[C@H](Cc2c[nH]c3ccccc23)NC(=O)[C@H](Cc2c[nH]c3ccc(O)cc23)NC(=O)[C@H](CCCCNC(C)=O)N(C)C(=O)[C@H](CCc2ccccc2)N(C)C(=O)[C@H](CO)NC(=O)[C@H](Cc2ccc(O)cc2)NC1=O [Example F3] | 0.3 | < 0.1 | < 0.1 | –
10 | CC(=O)NCCCC[C@H]1C(=O)N[C@@H](Cc2c[nH]c3ccc(O)cc23)C(=O)N[C@@H](Cc2c[nH]c3ccccc23)C(=O)N[C@@H](C2CC2)C(=O)N(C)[C@H](C(=O)N(C)[C@@H](Cc2ccc(F)cc2)C(=O)N[C@@H](CCCCNC(=O)CC[C@H](C(=O)O)N2CCN(CC(=O)O)CCN(CC(=O)O)CCN(CC(=O)O)CC2)C(N)=O)CNC(=O)CCC[C@H](NC(C)=O)C(=O)N[C@@H](Cc2ccc(O)cc2)C(=O)N[C@@H](CO)C(=O)N(C)[C@@H](CCc2ccccc2)C(=O)N1C [Example B12] | < 0.1 | < 0.1 | < 0.1 | –
11 | CC(=O)NCCCC[C@H]1C(=O)N[C@@H](Cc2c[nH]c3ccc(O)cc23)C(=O)N[C@@H](Cc2c[nH]c3ccccc23)C(=O)N[C@@H](C2CC2)C(=O)N(C)[C@H](C(=O)N(C)[C@@H](Cc2ccc(F)cc2)C(=O)N[C@@H](CCCCNC(=O)CC[C@H](C(=O)O)N2CCN(CC(=O)O)CCN(CC(=O)O)CCN(CC(=O)O)CC2)C(N)=O)CNC(=O)CCC[C@H](NC(C)=O)C(=O)N[C@@H](Cc2ccc(O)cc2)C(=O)N[C@@H](CO)C(=O)N(C)[C@@H](CCc2ccccc2)C(=O)N1C [Example C33] | – | – | – | Kd (mouse HER2 (23-653) [2]; [5]): < 0.1 nM

— patent US20250332300A1 (priority 2024, published 2025)
